From patent US7208612B2 (priority 2001, dated 2007) come the findings set out here.

Molecules are shown by their SMILES.

In one test the test system is V. harveyi LuxS- strain. Format: cell-based, Vibrio harveyi.
Test [1] relates to V. harveyi LuxP+, LuxS+ reporter strain (AI-2 detection system). As to the kind of experiment: Bioluminescence (light production) bioassay in LuxP+, LuxS+ reporter strain that produces its own AI-2. The class given is cell-based, Vibrio harveyi.

`C[C@@H](O)CC(=O)N[C@H]1CCOC1=O` [AI-1]: the response to autoinducer entry with V. harveyi LuxS- strain (latter strains (incl. LuxS-), same experimental conditions) is reported as “wild-type responses”.

For the molecule `OB(O)O` [Boric acid], the effect on bioluminescence result with V. harveyi LuxS- strain (LuxS- strain) is “no effect”. In test [1] (addition of 1 mM boric acid during delay period), the “induction of light production” value is on record as “substantial induction”. In test [1] (boric acid concentrations as low as 10 μM), the “induction of light production (fold)” value turned out to be 10 fold.
